Measured values reported in ChEMBL document CHEMBL1128203, “Synthesis and structure-activity relationships of acetylcholinesterase inhibitors: 1-benzyl-4-[(5,6-dimethoxy-1-oxoindan-2-yl)methyl]piperidine hydrochloride and related compounds” (J Med Chem, 1995).

Molecular target: T1, Acetylcholinesterase (Mus musculus, UniProt P21836)
T1 sequence (P21836 whole entry): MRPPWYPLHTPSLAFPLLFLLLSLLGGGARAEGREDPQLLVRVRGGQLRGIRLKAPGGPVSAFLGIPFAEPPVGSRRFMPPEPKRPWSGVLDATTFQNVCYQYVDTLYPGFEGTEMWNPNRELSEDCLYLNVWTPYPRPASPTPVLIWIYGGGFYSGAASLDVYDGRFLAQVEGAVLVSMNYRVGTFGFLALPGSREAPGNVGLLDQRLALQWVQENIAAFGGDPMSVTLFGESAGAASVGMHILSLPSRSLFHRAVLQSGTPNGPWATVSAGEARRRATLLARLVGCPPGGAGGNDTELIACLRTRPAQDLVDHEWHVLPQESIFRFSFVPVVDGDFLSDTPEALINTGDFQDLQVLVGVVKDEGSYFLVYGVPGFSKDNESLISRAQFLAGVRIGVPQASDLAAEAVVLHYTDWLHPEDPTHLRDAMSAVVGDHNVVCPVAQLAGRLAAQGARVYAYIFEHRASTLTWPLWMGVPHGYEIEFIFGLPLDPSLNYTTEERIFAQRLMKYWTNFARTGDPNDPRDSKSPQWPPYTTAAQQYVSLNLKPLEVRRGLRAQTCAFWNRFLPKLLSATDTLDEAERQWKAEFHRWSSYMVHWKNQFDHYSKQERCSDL
Description: Inhibitory activity against acetylcholinesterase

COc1cc2c(cc1OC)C(=O)/C(=C\C1CCN(Cc3ccccc3)CC1)C2 was tested. Which IC50 did it give?
Its IC50 is 13 nM.

Which IC50 does the source give for COc1cc2c(cc1OC)C(=O)C(CC1CCN(Cc3cccc(C)c3)CC1)C2 (stereo not drawn) here?
The IC50 was 2 nM.

Which IC50 does the source give for CNC(=O)Oc1ccc2c(c1)[C@]1(C)CCN(C)[C@@H]1N2C [PHYSOSTIGMINE] here?
The IC50 was 0.68 nM.

For COc1ccc(OC)c2c1CC(CC1CCN(Cc3ccccc3)CC1)C2=O (stereo not drawn), which IC50 is on record?
The IC50 was 36 nM.

For COc1ccc2c(c1OC)C(=O)C(CC1CCN(Cc3ccccc3)CC1)C2 (stereo not drawn), which IC50 is on record?
Its IC50 is 85 nM.

Which IC50 does the source give for COc1ccc2c(c1OC)CC(CC1CCN(Cc3ccccc3)CC1)C2=O (stereo not drawn) here?
Its IC50 is 20 nM.

COc1cc2c(cc1OC)C(=O)C(CCCC1CCN(Cc3ccccc3)CC1)C2 (stereo not drawn) was tested. Which IC50 did it give?
Its IC50 is 1.5 nM.

Which IC50 does the source give for O=C1c2ccccc2CC1CCC1CCN(Cc2ccccc2)CC1 (stereo not drawn) here?
The IC50 was 230 nM.
